Earlier results on four compounds are cited in patent US20120035270A1, “PAEDIATRIC SOLUTIONS COMPRISING A BETA-BLOCKER” (priority 2009, published 2012).

Data set [1] has as its system B. Subtilis, S. Aureus and E. Coli. To be noted: Takahashi et al. 1983.
A further data set relates to E. Coli. The following applies: growth of E. Coli.
For the next data set, the system named is B. Subtilis. To be noted: growth of B. Subtilis.
In another data set the test system is S. Aureus. To be noted: growth of S. Aureus.
The test system of data set [2] is Infantile capillary hemangiomas (IH). To be noted: severe hemangiomas of infancy, Léauté-Labrèze et al. 2008.

As to `CC(C)(C)NC[C@H](O)COc1nsnc1N1CCOCC1` [Timolol], the antimicrobial effects result in data set [1] is given as “do not have these antimicrobial effects”.

Turning to `CC(=O)c1cc2cccc(OCC(O)CNC(C)C)c2o1` (stereo not drawn) [befunolol], the antimicrobial effects entry in data set [1] was “do not have these antimicrobial effects”.

For the compound `Cc1ccc(Cl)c(OCC(O)CNC(C)(C)C)c1` (stereo not drawn) [bupranolol], the minimum inhibitory concentration in the data set with E. Coli is 0.05%; with B. Subtilis, 0.1%; in the data set with S. Aureus, 0.05%.

As to `CC(C)NCC(O)COc1cccc2ccccc12` (stereo not drawn) [propranolol, 1-(isopropylamino)-3-(naphthalen-1-yloxy)propan-2-ol], the “control and treatment of the growth of IH” value in data set [2] was “could efficiently be used to control and even to treat the growth of IH”.
